Tested on: pERK in H358 cells
Assay: pERK inhibition in H358 cells
Type: cell-based, human
Settings: 4 hours treatment, read-out: Cellular pERK inhibition
In short: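 Human lung cancer H358 cells in RPMI/10% FBS were exposed to compound or DMSO for 4 h. Fixed and permeabilized cells were stained overnight at 4 C with anti-phospho-ERK1/2 (Thr202/Tyr204). Near-infrared imaging read the pERK signal at 800 nm, with DRAQ5 at 700 nm.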

Q: How did the IC50 turn out when `CC1COC(=O)C2CCCN(N2)C(=O)C(NC(=O)C(C(C)C)N(C)C(=O)C2CN(C(=O)CCl)C2)Cc2cc(O)cc(c2)-c2ccc3c(S(C)(=O)=O)cn(c3c2)C1` (single isomer, unassigned) [Compound 110] was run?
A: The IC50 was 1 to 10 µM.

Q: With `CC1COC(=O)C2CCCN(N2)C(=O)C(NC(=O)C(C(C)C)N(C)C(=O)C2CN(C(=O)CCl)C2)Cc2cc(O)cc(c2)-c2ccc3c(c2)c(cn3CC2COC2)C1` (mixture of isomers) [Compound 226] as the molecule, how does the IC50 read?
A: The IC50 was 1 to 10 µM.

Source: patent US20240139185A1, “COMPOUNDS THAT PARTICIPATE IN COOPERATIVE BINDING AND USES THEREOF” (Revolution Medicines, Inc., priority 2018, published 2024)
